Experiments:
[1] = biological target: T1, full-length Akt1 (inactive) (Homo sapiens, UniProt P31749); assay: Biochemical Akt1 assay (full-length Akt1 inactive, PDK1-dependent activation, IMAP); conditions: PDK1 and PIP3 vesicles, 50 μM ATP; read-out: Inhibition of Akt1 activation (full-length Akt1, inactive): IC50
T1 construct: recombinant full-length human Akt1 a containing N-terminal His6 tag; His6 (N); purchased Upstate, UK #14-279; host or cells: baculovirus infected Sf21 insect cells
Protocol: The enzyme is purified using Ni2+/NTA-agarose (Upstate, UK; #14-279).
The enzyme is purified using Ni2+/NTA-agarose.
PDK1-dependent activation and subsequent enzymatic activity of Akt1: Activity of purified human Akt1 is routinely measured in an assay in which the enzyme is first activated by PDK1 in the presence of phosphatidylinositol-3,4,5-triphosphate (PIP3). Once activated, Akt1-dependent phosphorylation of a fluorescence labelled peptide substrate is measured by fluorescence polarisation using the IMAP technology (Molecular Devices).
The phospholipids are prepared as follows: 5 mg DOPC/DOPS are solved in 200 μl 10 mM Tris (pH 7.4) and 300 μg PIP3 are resuspended in 950 μl 10 mM Tris (pH 7.4) by pipetting. 950 μl solved PIP3 are mixed with 50 μl solved DOPC/DOPS and incubated for 2 h at a temperature below 20° C. Then the mixture is subjected to sonification for 30 min. at max. power until a translucent phopholipid vesicle preparation is obtained. Aliquots of the vesicle suspension are frozen at -80° C. until needed, likewise the solved DOPC/DOPS.
Assays are performed in 384-well plates. Incubations are carried out for 60 min. at room temperature. The reaction buffer mixture contained in a final volume of 25 μl: 10 mM Tris pH 7,4, 10 mM MgCl2. 1 mM DTT, and 0.1 mg/ml BSA. In contrast the activation buffer contained: 50 ng/well Akt1, 20 ng/well PDK1, 1.25 μM peptide substrat, 50 μM ATP, and phospholipid vesicles (1:20). Test compounds are added from stock solutions in DMSO before activation of Akt1 by PDK1. After the incubation the beads (IMAP binding reagent; Molecular Devices; 1:167) are added and the fluorescence polarization is measured (excitation 485 nm, emission 530 nm).

[2] = tested on: phosphorylated GSK3 (Ser9) in MCF7 cells; assay: Cellular pGSK3 assay (pGSK3-ELISA); assay type: cell-based; conditions: Homo sapiens, 48 h, read-out: GSK3 inhibition (pGSK3-ELISA): IC50
Protocol: In order to study the cellular activity of the compounds according to the invention, an ELISA-based assay has been established for the phosphorylated glycogen synthetase kinase 3, GSK3. The assay is based on a solid phase sandwich ELISA that detects endogenous levels of the phosphorylated GSK3 (BioSource International, Inc.; Catalog #KH00461). A phospho-GSK3 (Ser9) antibody has been coated onto the microwells. After incubation with cell lysates, the coated antibody captures the phosphorylated GSK3 protein. Following extensive washing, GSK3 polyclonal antibody is added to detect the captured phospho-GSK3 protein. […] (anti-rabbit IgG-HRP) is then used to recognize the bound detection antibody. After the second incubation and washing to remove all the excess anti-rabbit IgG-HRP, a substrate solution is added, which is acted upon by the bound enzyme to produce color. The intensity of this colored product is directly proportional to the concentration of […] [pS9] present in the original specimen.
MCF7 cells (ATCC HTB-22) are seeded into 96 well plates at a density of 10000 cells/well.
Cells are harvested and lysed with brief vortexing in cell extraction buffer (10 mM Tris, pH 7.4, 100 mM NaCl, 1 mM EDTA, 1 mM EGTA, 1 mM NaF, 20 mM Na4P2O7, 2 mM Na3VO4, 1% Triton X-100, 10% glycerol, 0.1% SDS, 0.5% deoxycholate, 1 mM PMSF). The lysate are centrifuged for 10 minutes at 4° C. and the supernatant transferred to a new tube. 50 μl of sample diluent (standard diluent buffer, Biosource) are added and 100 μl of cell lysate transferred into the tube and vortexed. 100 μl of each diluted cell lysate are added to the appropriate well (phospho-GSK3 (Ser9) antibody coated microwells; BioSource) and incubated for 3 h at room temperature. The plates are washed 4 times with 1× wash buffer (Biosource). […] The absorbance is measured at 450 nm (Wallac Victor2; Perkin Elmer, USA) within 30 minutes after adding Stop solution. The analysis of the data is performed using a statistical program (Microsoft Excel, USA) and the inhibition of pGSK3 phosphorylation is determined.

T1 sequence (P31749 whole entry): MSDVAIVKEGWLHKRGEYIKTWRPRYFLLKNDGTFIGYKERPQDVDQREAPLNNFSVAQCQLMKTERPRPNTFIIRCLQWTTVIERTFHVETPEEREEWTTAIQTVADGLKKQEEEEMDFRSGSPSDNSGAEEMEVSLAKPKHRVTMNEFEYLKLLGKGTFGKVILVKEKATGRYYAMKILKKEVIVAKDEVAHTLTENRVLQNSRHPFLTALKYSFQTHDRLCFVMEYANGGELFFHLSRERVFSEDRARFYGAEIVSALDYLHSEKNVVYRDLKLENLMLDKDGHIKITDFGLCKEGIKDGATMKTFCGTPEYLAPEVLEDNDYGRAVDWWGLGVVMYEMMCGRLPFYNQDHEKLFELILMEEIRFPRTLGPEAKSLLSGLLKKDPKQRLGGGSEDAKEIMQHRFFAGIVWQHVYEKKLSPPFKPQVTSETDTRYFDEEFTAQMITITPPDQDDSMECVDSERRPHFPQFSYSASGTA

SMILES: NCCCC(=O)Nc1ccc(Nc2nc(-c3cccc4c3oc3ccccc34)cc3ccnn23)cc1 [Example 24, 4-Amino-N-[4-(5-dibenzofuran-4-yl-pyrazolo[1,5-c]pyrimidin-7-ylamino)-phenyl]-butyramide]
- IC50 [1]: ≤ 5 µM
- IC50 [2]: < 10 µM

SMILES: COc1cccc(-c2ccc(-c3cc4ccnn4c(Nc4ccc(NC(=O)c5ccc(CN)cc5)cc4)n3)cc2)c1 [Example 59, 4-Aminomethyl-N-{4-[5-(3′-methoxy-biphenyl-4-yl)-pyrazolo[1,5-c]pyrimidin-7-ylamino]-phenyl}-benzamide]
- IC50 [1]: ≤ 5 µM
- IC50 [2]: < 10 µM

SMILES: O=C(Nc1cccc(Nc2nc(-c3cccc4c3oc3ccccc34)cc3ccnn23)c1)c1ccc2c(c1)CCNC2 [Example 63, 1,2,3,4-Tetrahydro-isoquinoline-6-carboxylic acid [3-(5-dibenzofuran-4-yl-pyrazolo[1,5-c]pyrimidin-7-ylamino)-phenyl]-amide]
- IC50 [1]: ≤ 5 µM
- IC50 [2]: < 10 µM

SMILES: COc1cccc(-c2ccc(-c3cc4c(Br)cnn4c(Nc4ccc(NC(=O)c5ccc(CN)cc5)cc4)n3)cc2)c1 [Example 87, 4-Aminomethyl-N-{4-[3-bromo-5-(3′-methoxy-biphenyl-4-yl)-pyrazolo[1,5-c]pyrimidin-7-ylamino]-phenyl}-benzamide]
- IC50 [1]: ≤ 5 µM

Reference: patent US7745446B2, “Pyrazolo[1,5-c]pyrimidines” (Bayer Schering Pharma Aktiengesellschaft, priority 2004, dated 2010)
